Where two headings read alike, the source gives them in different places. Starred links: 1 amine or outer side, 2 acyl side, 3 side chain; linkers in the order of their positions; H or OH if unused. Positions of bridges follow the written chain, without caps; N, C: chain ends. Non-standard residues stand in square brackets, D forms with d. Residues, ends and D or L forms follow the SMILES beside them. Chains are numbered I, II in the order given. *: point of attachment. X5 = O=C(O)CCCCCCCCCCCCC(=O)N[C@@H](CCC(=O)N[C@@H](CCCCN*)C(=O)O)C(=O)O; X4 = O=C(O)CCCCCCCCCCC(=O)N[C@@H](CCC(=O)N[C@@H](CCCCN*)C(=O)O)C(=O)O; Ala(piperidin-4-yl) = O=C([C@H](CC1CCN([*:3])CC1)N[*:1])[*:2]; Phe(4-COOH) = N[C@@H](Cc1ccc(C(=O)O)cc1)C(=O)O; X3 = O=C(O)CN1CCC(N[*:1])(C(=O)[*:2])CC1; Phe(4-F) = N[C@@H](Cc1ccc(F)cc1)C(=O)O; C12 diacid = O=C(O)CCCCCCCCCCC(=O)*; NMeF = CN[C@@H](Cc1ccccc1)C(=O)O; X1 = C[C@@H](Cc1ccc(O)cc1)C(=O)*; NMeE = CN[C@@H](CCC(=O)O)C(=O)O; dNMeE = CN[C@H](CCC(=O)O)C(=O)O; Cha = N[C@@H](CC1CCCCC1)C(=O)O; Cit = NC(=O)NCCC[C@H](N)C(=O)O; dNMeD = CN[C@H](CC(=O)O)C(=O)O; NMeNle = CCCC[C@H](NC)C(=O)O; hCys = N[C@@H](CCS)C(=O)O; PEG2 = NCCOCCOCCC(=O)O; X2 = O=C(C[*:1])[*:2]; Aib = CC(C)(N)C(=O)O
Columns and labels:
[1] = test system: SARS-CoV-2 Delta strain
[2] = test system: SARS-CoV-2 Wuhan strain
[3] = test system: SARS-CoV-2 (JPN/TY/WK-521 strain); assay type: cell-based; parameters: key: the case where the peptide was found to have anti-SARS-CoV-2 activity when added at 50 nM was designated as “2”; the case where no activity was found upon the addition at 50 nM but the activity was found at 1 μM was designated as “1”; settings: peptide added at 50 nM or 1 μM
[4] = test system: SARS-CoV2 (USA WA1/2020 strain); settings: 72 h
[5] = in vitro; settings: African green monkey

CCCC[C@H]1C(=O)NC(C)(C)C(=O)N[C@@H](CC2CCCCC2)C(=O)N[C@@H](Cc2ccc(F)cc2)C(=O)N[C@H](CC(=O)O)C(=O)N[C@@H](Cc2ccc(O)cc2)C(=O)N[C@@H](Cc2ccc(O)cc2)C(=O)N[C@@H](CCCNC(N)=O)C(=O)N[C@H](CCCCN)C(=O)N[C@@H](CC2CCCCC2)C(=O)N[C@H](C(=O)N[C@H](CCC(=O)O)C(=O)NCCCC[C@H](NC(=O)CC[C@H](NC(=O)CCCCCCCCCCCCC(=O)O)C(=O)O)C(=O)O)CSCC(=O)N(C)[C@@H](CCC(=O)O)C(=O)N1C [Peptide 5555_p235] ({CH2CO}-[NMeE][NMeNle][Aib][Cha][Phe(4-F)][dD]YY[Cit][dK][Cha]C[dE]-X5; thioether N-12)
IC50 [1]: 57 nM

CCCC[C@H]1C(=O)NC(C)(C)C(=O)N[C@@H](CC2CCCCC2)C(=O)N[C@@H](Cc2ccc(F)cc2)C(=O)NC2(CCN(CC(=O)O)CC2)C(=O)N[C@@H](Cc2ccc(O)cc2)C(=O)N[C@@H](Cc2ccc(O)cc2)C(=O)N[C@@H](Cc2ccc(C(=O)O)cc2)C(=O)N[C@@H](CC2CCNCC2)C(=O)N[C@@H](CC2CCCCC2)C(=O)N[C@H](C(=O)N[C@H](CCC(=O)O)C(N)=O)CSCC(=O)N(C)[C@@H](CCC(=O)O)C(=O)N1C [Peptide 5555_p173] ({CH2CO}-[NMeE][NMeNle][Aib][Cha][Phe(4-F)][X3]YY[Phe(4-COOH)][Ala(piperidin-4-yl)][Cha]C[dE]-NH2; thioether N-12)
IC50 [2]: 6.8 nM

CCCC[C@@H](C(=O)NC(C)(C)C(=O)N[C@@H](CC1CCCCC1)C(=O)N[C@@H](Cc1ccc(F)cc1)C(=O)N[C@H](CC(=O)O)C(N)=O)N(C)C(=O)[C@H](CCC(=O)O)N(C)C(=O)CSCC[C@H](NC(=O)[C@H](CC1CCCCC1)NC(=O)[C@@H](CCCCN)NC(=O)[C@H](CCCNC(N)=O)NC(=O)[C@H](Cc1ccc(O)cc1)NC(=O)[C@@H](C)Cc1ccc(O)cc1)C(=O)N[C@H](CCC(=O)O)C(=O)N[C@H](CCCCNC(=O)CCCCCCCCCCC(=O)O)C(N)=O [Peptide 5555_p221] (I: X1-Y[Cit][dK][Cha][hCys][dE][dK](C12 diacid)-NH2 / II: [NMeE][NMeNle][Aib][Cha][Phe(4-F)][dD]-NH2; linker I:5-II:N via X2)
IC50 [1]: 18.6 nM | IC50 [2]: 17.7 nM

CCCC[C@H]1C(=O)NC(C)(C)C(=O)N[C@@H](CC2CCCCC2)C(=O)N[C@@H](Cc2ccc(F)cc2)C(=O)N[C@H](CC(=O)O)C(=O)N[C@@H](Cc2ccc(O)cc2)C(=O)N[C@@H](Cc2ccc(O)cc2)C(=O)N[C@@H](CCCNC(N)=O)C(=O)N[C@H](CCCCN)C(=O)N[C@@H](CC2CCCCC2)C(=O)N[C@H](C(=O)N[C@H](CCC(=O)O)C(=O)NCCOCCOCCC(=O)N[C@H](CCCCNC(=O)CCCCCCCCCCC(=O)O)C(N)=O)CSCC(=O)N(C)[C@@H](CCC(=O)O)C(=O)N1C [Peptide 5555_p227] ({CH2CO}-[NMeE][NMeNle][Aib][Cha][Phe(4-F)][dD]YY[Cit][dK][Cha]C[dE][PEG2][dK](C12 diacid)-NH2; thioether N-12)
IC50 [1]: 8 nM | IC50 [2]: 11.5 nM

CCCC[C@H]1C(=O)NC(C)(C)C(=O)N[C@@H](CC2CCCCC2)C(=O)N[C@@H](Cc2ccc(F)cc2)C(=O)N[C@H](CC(=O)O)C(=O)N[C@@H](Cc2ccc(O)cc2)C(=O)N[C@@H](Cc2ccc(O)cc2)C(=O)N[C@@H](CCCNC(N)=O)C(=O)N[C@H](CCCCN)C(=O)N[C@@H](CC2CCCCC2)C(=O)N[C@H](C(=O)N[C@H](CCC(=O)O)C(=O)NCCCC[C@H](NC(=O)CC[C@H](NC(=O)CCCCCCCCCCC(=O)O)C(=O)O)C(=O)O)CSCC(=O)N(C)[C@@H](CCC(=O)O)C(=O)N1C [Peptide 5555_p234] ({CH2CO}-[NMeE][NMeNle][Aib][Cha][Phe(4-F)][dD]YY[Cit][dK][Cha]C[dE]-X4; thioether N-12)
IC50 [1]: 42 nM

CN1C(=O)CSC[C@@H](C(=O)N[C@H](CCC(=O)O)C(N)=O)NC(=O)[C@H](CC2CCCCC2)NC(=O)[C@H](CCCCN)NC(=O)[C@H](CCCNC(N)=O)NC(=O)[C@H](Cc2ccc(O)cc2)NC(=O)[C@H](Cc2ccc(O)cc2)NC(=O)[C@H](CCC(=O)O)N(C)C(=O)[C@H](Cc2ccc(F)cc2)NC(=O)[C@H](CC2CCCCC2)NC(=O)[C@H](CO)NC(=O)[C@H](Cc2ccccc2)N(C)C(=O)[C@@H]1CCC(=O)O [Peptide 5555_p092] ({CH2CO}-[NMeE][NMeF]S[Cha][Phe(4-F)][NMeE]YY[Cit]K[Cha]C[dE]-NH2; thioether N-12)
Anti-SARS-CoV-2 activity ([3]; VeroE6/TMPRSS2 cells, JPN/TY/WK-521 strain, 24 hours): 2 | IC50 [4]: 4.1 nM | CC50 at 72 h [5]: > 100000 nM

CCCC[C@H]1C(=O)NC(C)(C)C(=O)N[C@@H](CC2CCCCC2)C(=O)N[C@@H](Cc2ccc(F)cc2)C(=O)N(C)[C@H](CC(=O)O)C(=O)N[C@@H](Cc2ccc(O)cc2)C(=O)N[C@@H](Cc2ccc(O)cc2)C(=O)N[C@@H](Cc2ccc(C(=O)O)cc2)C(=O)N[C@@H](CC2CCNCC2)C(=O)N[C@@H](CC2CCCCC2)C(=O)N[C@H](C(=O)N[C@H](CCC(=O)O)C(N)=O)CSCC(=O)N(C)[C@@H](CCC(=O)O)C(=O)N1C [Peptide 5555_p176] ({CH2CO}-[NMeE][NMeNle][Aib][Cha][Phe(4-F)][dNMeD]YY[Phe(4-COOH)][Ala(piperidin-4-yl)][Cha]C[dE]-NH2; thioether N-12)
IC50 [1]: 13.7 nM | IC50 [2]: 13.6 nM

CCCC[C@H]1C(=O)NC(C)(C)C(=O)N[C@@H](CC2CCCCC2)C(=O)N[C@@H](Cc2ccc(F)cc2)C(=O)N(C)[C@H](CCC(=O)O)C(=O)N[C@@H](Cc2ccc(O)cc2)C(=O)N[C@@H](Cc2ccc(O)cc2)C(=O)N[C@@H](Cc2ccc(C(=O)O)cc2)C(=O)N[C@@H](CC2CCNCC2)C(=O)N[C@@H](CC2CCCCC2)C(=O)N[C@H](C(=O)N[C@H](CCC(=O)O)C(N)=O)CSCC(=O)N(C)[C@@H](CCC(=O)O)C(=O)N1C [Peptide 5555_p175] ({CH2CO}-[NMeE][NMeNle][Aib][Cha][Phe(4-F)][dNMeE]YY[Phe(4-COOH)][Ala(piperidin-4-yl)][Cha]C[dE]-NH2; thioether N-12)
IC50 [2]: 34.5 nM

CCCC[C@H]1C(=O)NC(C)(C)C(=O)N[C@@H](CC2CCCCC2)C(=O)N[C@@H](Cc2ccc(F)cc2)C(=O)N[C@H](CC(=O)O)C(=O)N[C@@H](Cc2ccc(O)cc2)C(=O)N[C@@H](Cc2ccc(O)cc2)C(=O)N[C@@H](Cc2ccc(C(=O)O)cc2)C(=O)N[C@H](CCCNC(=N)N)C(=O)N[C@@H](CC2CCCCC2)C(=O)N[C@H](C(N)=O)CSCC(=O)N(C)[C@@H](CCC(=O)O)C(=O)N1C [Peptide 5555_p003] ({CH2CO}-[NMeE][NMeNle][Aib][Cha][Phe(4-F)][dD]YY[Phe(4-COOH)][dR][Cha]C-NH2; thioether N-12)
Anti-SARS-CoV-2 activity [3]: 2 | IC50 [4]: 4.5 nM | CC50 at 72 h [5]: > 100000 nM

— US20240209027A1, “PEPTIDE AND PEPTIDE-CONTAINING COMPOSITION” (PeptiAID Inc.,, priority 2021, published 2024)
